Measurements published in the supplement of paper PMC10307832.

Assays:
Assay in all cases: relative viability (nuclei count vs DMSO), 5 days (fraction); higher = more cells survive
Motesanib + Lapatinib = compound: CC1(C)CNc2cc(NC(=O)c3cccnc3NCc3ccncc3)ccc21 [Motesanib] + CS(=O)(=O)CCNCc1ccc(-c2ccc3ncnc(Nc4ccc(OCc5cccc(F)c5)c(Cl)c4)c3c2)o1 [Lapatinib] (partner 2 µM)
Method in brief: (§1)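 After 5 days of treatment, lung cancer cells in 1536-well plates were fixed and stained in a single step (final 0.05% Triton X-100, 1% formaldehyde, 1 ug/ml Hoechst) and their nuclei counted on 4× images. Treatment had been applied by pin tool the day after seeding as one drug alone or as a fixed anchor-drug dose with five library-drug doses (not always all listed) in √10 steps. Relative viability is the nuclei count of treated wells divided by that of vehicle wells, and values are medians of duplicate plates.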

[1] = compound: C[C@@]1(C(=O)Nc2ccc(F)nc2)CCCN1c1nc(Nc2cc(C3CC3)n[nH]2)c2cccn2n1 + Cc1cc(Nc2cc(N3CCN(C)CC3)nc(Sc3ccc(NC(=O)C4CC4)cc3)n2)n[nH]1 [Tozasertib] (partner 0.1 µM)
Method in brief: as §1

[2] = compound: C[C@@]1(C(=O)Nc2ccc(F)nc2)CCCN1c1nc(Nc2cc(C3CC3)n[nH]2)c2cccn2n1 + Cc1nc(NC(=O)N2CCC[C@H]2C(N)=O)sc1-c1ccnc(C(C)(C)C(F)(F)F)c1 [Alpelisib] (partner 2 µM)
Method in brief: as §1

[3] = compound: C[C@@]1(C(=O)Nc2ccc(F)nc2)CCCN1c1nc(Nc2cc(C3CC3)n[nH]2)c2cccn2n1 + O=C(c1cc(Cc2n[nH]c(=O)c3ccccc23)ccc1F)N1CCN(C(=O)C2CC2)CC1 [Olaparib] (partner 8 µM)
Method in brief: as §1

| Cell Line | relative viability (Motesanib + Lapatinib; first compound 0.01 µM) | relative viability (Motesanib + Lapatinib; first compound 0.03162 µM) | relative viability (Motesanib + Lapatinib; first compound 0.1 µM) | relative viability (Motesanib + Lapatinib; first compound 0.3162 µM) | relative viability (Motesanib + Lapatinib; first compound 1 µM) | relative viability ([1]; first compound 0.04 µM) | relative viability ([1]; first compound 0.1265 µM) | relative viability ([1]; first compound 0.4 µM) | relative viability ([1]; first compound 1.265 µM) | relative viability ([2]; first compound 0.04 µM) | relative viability ([2]; first compound 0.1265 µM) | relative viability ([2]; first compound 0.4 µM) | relative viability ([2]; first compound 1.265 µM) | relative viability ([3]; first compound 0.04 µM) | relative viability ([3]; first compound 0.1265 µM) | relative viability ([3]; first compound 0.4 µM) | relative viability ([3]; first compound 1.265 µM) |
| --- | --- | --- | --- | --- | --- | --- | --- | --- | --- | --- | --- | --- | --- | --- | --- | --- | --- |
| HCC-15 | 0.849 | 0.874 | 0.723 | 0.947 | 0.886 | 0.403 | 0.337 | 0.119 | 0.169 | 0.896 | 0.757 | 0.829 | 0.937 | 0.663 | 0.614 | 0.611 | 0.635 |
| HCC-44 | 0.989 | 0.952 | 1.02 | 1.04 | 1.03 | 0.858 | 0.616 | 0.574 | 0.362 | 0.666 | 0.698 | 0.552 | 0.783 | 0.94 | 0.879 | 0.867 | 0.911 |
| HCC-78 | 0.662 | 0.785 | 0.63 | 0.913 | 0.916 | 0.37 | 0.27 | 0.308 | 0.33 | 0.321 | 0.196 | 0.23 | 0.257 | 0.661 | 1.12 | 0.375 | 0.427 |
| HCC-366 | 0.913 | 1.08 | 1.06 | 1.13 | 1.06 | 0.677 | 0.102 | 0.0503 | 0.637 | 0.205 | 0.162 | 0.141 | 0.163 | 0.364 | 0.256 | 0.254 | 0.215 |
